Experimental data taken from patent US20150133297A1, “NEW ANTIFUNGAL COMPOSITIONS” (DSM IP ASSETS B.V., priority 2012, published 2015).
Where “and” joins values, the source holds several entries; their conditions need not be identical. Identical values can stand only once.

Experiments:
Botrytis cinerea = assay: Treatment of strawberries (Example 5): wounded, inoculated, dipped in antifungal composition; type: in vivo; conditions: 500 ppm natamycin, 600 ppm fenpropidin or both; for Observed antifungal activity O (%): strawberries, 20° C.
Method: Twelve fresh, organic strawberries were used per treatment. Each strawberry was wounded with a 0.5 mm long cut and each wound was inoculated with 10 μl of a Botrytis cinerea suspension containing 1×10^5 of spores/ml. […] A composition without natamycin or fenpropidin was used as control. […] The treated strawberries were incubated in a closed box in the dark at 20° C. for 9 days. During incubation, mould growth on the strawberries was assessed in a twofold manner: […] The expected antifungal activity (E in %) of the combined antifungal composition comprising both active ingredients was calculated according to the Colby equation (Colby, 1967): […] wherein X and Y are the observed antifungal activities (in %) of the individual active ingredients X and Y, respectively.

Penicillium italicum = assay: Treatment of oranges (Examples 6-9): wounded, inoculated, wound treated with antifungal composition; type: in vivo; conditions: for Observed antifungal activity O (%): oranges, 20° C.
Method: During incubation, mould growth on the strawberries was assessed in a twofold manner: (i) the number of moulded strawberries per total of 12 strawberries was counted; and (ii) the antifungal activity (in %) of the individual and combined active ingredients was determined by calculating the reduction in mould growth observed on the strawberries treated with the antifungal composition in comparison to the mould growth on the strawberries treated with the control composition. The expected antifungal activity (E in %) of the combined antifungal composition comprising both active ingredients was calculated according to the Colby equation (Colby, 1967): […]
Eight fresh, organic oranges were used per treatment. Each orange was soaked in a 180 ppm hypochlorite solution for 10 minutes, then rinsed thoroughly with fresh tap water and dried. The peel of each disinfected orange was wounded once using a cork borer according to the method described by de Lapeyre de Bellaire and Dubois (1987). Subsequently, each wound was inoculated with 10 μl of a Penicillium italicum suspension containing 5×10^5 of spores/ml. After incubation for 3 hours at 20° C., each wound and the orange peel area of 1 cm around the wound was treated with in total 150 μl of a freshly prepared aqueous antifungal composition comprising either 500 ppm natamycin (DSM Food Specialties, Delft, The Netherlands), 500 ppm fenpropidin or both. Each antifungal composition also comprised 3.2% (w/w) beeswax, 0.8% (w/w) glycerol, 0.7% (w/w) polyoxyethylene sorbitan monostearate (Tween 60), 0.1% (w/w) polyoxyethylene sorbitan monooleate (Tween 80), 0.05% (w/w) methylhydroxyethyl-cellulose (MHEC), 0.03% (w/w) anti-foaming agent, 0.02% (w/w) xanthan gum, 0.02% (w/w) citric acid, 0.01% (w/w) lactic acid and 0.01% potassium sorbate. A composition without natamycin or fenpropidin was used as control. […] The treated oranges were incubated in a closed box in the dark at 20° C. and assessed on mould growth during a 28-day incubation period. The antifungal activity (in %) of the individual and combined active ingredients was determined by calculating the reduction in mould growth observed on the oranges treated with the antifungal composition in comparison to the mould growth on the oranges treated with the control composition according to the Colby method (Colby, 1967) as described in Example 5.
The experiment was conducted as described in Example 6, except for the fact that each wounded and inoculated orange was treated with 150 μl of a freshly prepared aqueous antifungal composition comprising either 250 ppm natamycin (DSM Food Specialties, Delft, The Netherlands), 250 ppm fenpropidin or both. During the 26-day incubation period, the treated oranges were assessed on mould growth according to the two methods described in Example 5.
The experiment was conducted as described in Example 6, except for the fact that each wounded and inoculated orange was treated with 150 μl of a freshly prepared aqueous antifungal composition comprising either 500 ppm natamycin (DSM Food Specialties, Delft, The Netherlands), 400 ppm spiroxamine or both. During the 26-day incubation period, the treated oranges were assessed on mould growth according to the two methods described in Example 5.
The experiment was conducted as described in Example 6, except for the fact that each wounded and inoculated orange was treated with 150 μl of a freshly prepared aqueous antifungal composition comprising either 250 ppm natamycin (DSM Food Specialties, Delft, The Netherlands), 200 ppm spiroxamine or both. During the 26-day incubation period, the treated oranges were assessed on mould growth according to the two methods described in Example 5.

In the case of `CC(Cc1ccc(C(C)(C)C)cc1)CN1CCCCC1` (stereo not drawn) [Fenpropidin, fenpropidin], the “Number of moulded strawberries/total number of 12 strawberries” value (Botrytis cinerea; Day 5, 20° C.) is reported as 12 and 12/12, the “Number of moulded strawberries/total number of 12 strawberries” value (Botrytis cinerea; Day 6, 20° C.) is reported as 12 and 12/12 and the “Observed antifungal activity O (%)” value (Botrytis cinerea; day 4) is reported as 0%. For the same compound, the “Observed antifungal activity O (%)” value (Botrytis cinerea; day 5) was 0%, the “Observed antifungal activity O (%)” value (Botrytis cinerea; day 6) was 0% and the “Observed antifungal activity O (%)” value (Botrytis cinerea; day 7) was 0%. The “Observed antifungal activity O (%)” value (Botrytis cinerea; day 8) was 0%, the “Observed antifungal activity O (%)” value (Botrytis cinerea; day 9) was 0% and the “Number of moulded oranges/total number of 8 oranges” value (Penicillium italicum; Day 18, 20° C., 250 ppm natamycin, 250 ppm fenpropidin or both) was 6/8. The “Number of moulded oranges/total number of 8 oranges” value (Penicillium italicum; Day 19, 20° C., 250 ppm natamycin, 250 ppm fenpropidin or both) was 6/8, the “Number of moulded oranges/total number of 8 oranges” value (Penicillium italicum; Day 20, 20° C., 250 ppm natamycin, 250 ppm fenpropidin or both) was 7/8 and the “Number of moulded oranges/total number of 8 oranges” value (Penicillium italicum; Day 21-22, 20° C., 250 ppm natamycin, 250 ppm fenpropidin or both) was 7 and 7/8. The “Number of moulded oranges/total number of 8 oranges” value (Penicillium italicum; Day 23-26, 20° C., 250 ppm natamycin, 250 ppm fenpropidin or both) was 7 and 7/8, the “Observed antifungal activity O (%)” value (Penicillium italicum; day 18, 250 ppm natamycin, 250 ppm fenpropidin or both) was 59% and the “Observed antifungal activity O (%)” value (Penicillium italicum; day 19, 250 ppm natamycin, 250 ppm fenpropidin or both) was 50%. The “Observed antifungal activity O (%)” value (Penicillium italicum; day 20, 250 ppm natamycin, 250 ppm fenpropidin or both) was 43%, the “Observed antifungal activity O (%)” value (Penicillium italicum; day 21, 250 ppm natamycin, 250 ppm fenpropidin or both) was 38% and the “Observed antifungal activity O (%)” value (Penicillium italicum; day 22, 250 ppm natamycin, 250 ppm fenpropidin or both) was 30%. The “Observed antifungal activity O (%)” value (Penicillium italicum; day 22, 500 ppm natamycin, 500 ppm fenpropidin or both) was 94%, the “Observed antifungal activity O (%)” value (Penicillium italicum; day 23, 250 ppm natamycin, 250 ppm fenpropidin or both) was 16% and the “Observed antifungal activity O (%)” value (Penicillium italicum; day 23, 500 ppm natamycin, 500 ppm fenpropidin or both) was 89%. The “Observed antifungal activity O (%)” value (Penicillium italicum; day 25, 250 ppm natamycin, 250 ppm fenpropidin or both) was 4%, the “Observed antifungal activity O (%)” value (Penicillium italicum; day 25, 500 ppm natamycin, 500 ppm fenpropidin or both) was 84% and the “Observed antifungal activity O (%)” value (Penicillium italicum; day 26, 250 ppm natamycin, 250 ppm fenpropidin or both) was 0%. For the same compound, the “Observed antifungal activity O (%)” value (Penicillium italicum; day 26, 500 ppm natamycin, 500 ppm fenpropidin or both) was 81%, the “Observed antifungal activity O (%)” value (Penicillium italicum; day 27, 500 ppm natamycin, 500 ppm fenpropidin or both) was 80% and the “Observed antifungal activity O (%)” value (Penicillium italicum; day 28, 500 ppm natamycin, 500 ppm fenpropidin or both) was 75%.
